The EC50 is the midpoint of the concentration-response curve.

This passage reports EC50 results from patent US20120220562A1, “Anti-Viral Compounds” (ABBOTT LABAORATORIES, priority 2011, published 2012).

The test concerns HCV 1b-Con1 replicon. The test can be described thus: HCV 1b-Con1 replicon assay in the presence of 5% FBS. The format is cell-based. As to conditions: Hepatitis C virus. In general terms: In antiviral work, replicon cells carry a viral genome segment that copies itself.

Bounds are passed on as bounds.

As to `COC(=O)N[C@H](C(=O)N1CCC[C@H]1c1nc2cc([C@H]3CC[C@H](c4ccc5[nH]c([C@@H]6CCCN6C(=O)[C@@H](NC(=O)OC)C(C)C)nc5c4)N3c3cc(F)c(N4CCC5(CCCCC5)CC4)c(F)c3)ccc2[nH]1)C(C)C` [Example 5.12, methyl {(2S)-1-[(2S)-2-{5-[(2R,5R)-1-[4-(3-azaspiro[5.5]undec-3-yl)-3,5-difluorophenyl]-5-{2-[(2S)-1-{(2S)-2-[(methoxycarbonyl)amino]-3-methylbutanoyl}pyrrolidin-2-yl]-1H-benzimidazol-5-yl}pyrrolidin-2-yl]-1H-benzimidazol-2-yl}pyrrolidin-1-yl]-3-methyl-1-oxobutan-2-yl}carbamate], the EC50 was less than 0.1 nM. Then `COC(=O)N[C@H](C(=O)N1CCC[C@H]1c1nc2cc([C@H]3CC[C@H](c4ccc5[nH]c([C@@H]6CCCN6C(=O)[C@@H](NC(=O)OC)C(C)C)nc5c4)N3c3cc(F)c(N4Cc5ccccc5C4)c(F)c3)ccc2[nH]1)C(C)C` [Example 5.13, methyl {(2S)-1-[(2S)-2-{5-[(2R,5R)-1-[4-(1,3-dihydro-2H-isoindol-2-yl)-3,5-difluorophenyl]-5-{2-[(2S)-1-{(2S)-2-[(methoxycarbonyl)amino]-3-methylbutanoyl}pyrrolidin-2-yl]-1H-benzimidazol-5-yl}pyrrolidin-2-yl]-1H-benzimidazol-2-yl}pyrrolidin-1-yl]-3-methyl-1-oxobutan-2-yl}carbamate], with less than 0.1 nM; and `COC(=O)N[C@H](C(=O)N1CCC[C@H]1c1nc2cc([C@H]3CC[C@H](c4ccc5[nH]c([C@@H]6CCCN6C(=O)[C@@H](NC(=O)OC)C(C)C)nc5c4)N3c3cc(F)c(N4CCC5(CC4)OCCO5)c(F)c3)ccc2[nH]1)C(C)C` [Example 5.14], with less than 0.1 nM; and `COC(=O)N[C@H](C(=O)N1CCC[C@H]1c1nc2cc([C@H]3CC[C@H](c4ccc5[nH]c([C@@H]6CCCN6C(=O)[C@@H](NC(=O)OC)C(C)C)nc5c4)N3c3cc(F)c(N4CC=C(c5ccccc5)CC4)c(F)c3)ccc2[nH]1)C(C)C` [Example 5.15, methyl {(2S)-1-[(2S)-2-{5-[(2R,5R)-1-[3,5-difluoro-4-(4-phenyl-3,6-dihydropyridin-1(2H)-yl)phenyl]-5-{2-[(2S)-1-{(2S)-2-[(methoxycarbonyl)amino]-3-methylbutanoyl}pyrrolidin-2-yl]-1H-benzimidazol-5-yl}pyrrolidin-2-yl]-1H-benzimidazol-2-yl}pyrrolidin-1-yl]-3-methyl-1-oxobutan-2-yl}carbamate], with less than 0.1 nM. With `COC(=O)N[C@H](C(=O)N1CCC[C@H]1c1nc2cc([C@H]3CC[C@@H](c4cc5[nH]c([C@@H]6CCCN6C(=O)[C@@H](NC(=O)OC)C(C)C)nc5cc4F)N3c3ccc(C(C)(C)C)cc3)c(F)cc2[nH]1)C(C)C` [Example 6.2, methyl {(2S)-1-[(2S)-2-{5-[(2R,5S)-1-(4-tert-butylphenyl)-5-{5-fluoro-2-[(2S)-1-(2S)-2-[(methoxycarbonyl)amino]-3-methylbutanoylpyrrolidin-2-yl]-1H-benzimidazol-6-yl}pyrrolidin-2-yl]-6-fluoro-1H-benzimidazol-2-yl}pyrrolidin-1-yl]-3-methyl-1-oxobutan-2-yl}carbamate] the figure was less than 0.1 nM. As to `COC(=O)N[C@H](C(=O)N1CCC[C@H]1c1nc2c(F)c([C@H]3CC[C@H](c4ccc5nc([C@@H]6CCCN6C(=O)[C@@H](NC(=O)OC)C(C)C)[nH]c5c4F)N3c3ccc(C(C)(C)C)cc3)ccc2[nH]1)C(C)C` [Example 6.3, methyl {(2S)-1-[(2S)-2-{5-[(2R,5R)-1-(4-tert-butylphenyl)-5-{7-fluoro-2-[(2S)-1-{(2S)-2-[(methoxycarbonyl)amino]-3-methylbutanoyl}pyrrolidin-2-yl]-1H-benzimidazol-6-yl}pyrrolidin-2-yl]-4-fluoro-1H-benzimidazol-2-yl}pyrrolidin-1-yl]-3-methyl-1-oxobutan-2-yl}carbamate], the EC50 is less than 0.1 nM. With `COC(=O)N[C@H](C(=O)N1CCC[C@H]1c1nc2c(F)c([C@H]3CC[C@@H](c4ccc5nc([C@@H]6CCCN6C(=O)[C@@H](NC(=O)OC)C(C)C)[nH]c5c4F)N3c3ccc(C(C)(C)C)cc3)ccc2[nH]1)C(C)C` [Example 6.4, methyl {(2S)-1-[(2S)-2-{5-[(2R,5S)-1-(4-tert-butylphenyl)-5-{7-fluoro-2-[(2S)-1-{(2S)-2-[(methoxycarbonyl)amino]-3-methylbutanoyl}pyrrolidin-2-yl]-1H-benzimidazol-6-yl}pyrrolidin-2-yl]-4-fluoro-1H-benzimidazol-2-yl}pyrrolidin-1-yl]-3-methyl-1-oxobutan-2-yl}carbamate] the figure was less than 0.1 nM; with `COC(=O)N[C@H](C(=O)N1CCC[C@H]1c1nc2c(Cl)c([C@H]3CC[C@H](c4ccc5[nH]c([C@@H]6CCCN6C(=O)[C@@H](NC(=O)OC)C(C)C)nc5c4Cl)N3c3ccc(C(C)(C)C)cc3)ccc2[nH]1)C(C)C` [Example 6.5, methyl {(2S)-1-[(2S)-2-{5-[(2R,5R)-1-(4-tert-butylphenyl)-5-{4-chloro-2-[(2S)-1-{(2S)-2-[(methoxycarbonyl)amino]-3-methylbutanoyl}pyrrolidin-2-yl]-1H-benzimidazol-5-yl}pyrrolidin-2-yl]-4-chloro-1H-benzimidazol-2-yl}pyrrolidin-1-yl]-3-methyl-1-oxobutan-2-yl}carbamate], less than 0.1 nM. Then `COC(=O)N[C@H](C(=O)N1CCC[C@H]1c1nc2c(Cl)c([C@H]3CC[C@@H](c4ccc5[nH]c([C@@H]6CCCN6C(=O)[C@@H](NC(=O)OC)C(C)C)nc5c4Cl)N3c3ccc(C(C)(C)C)cc3)ccc2[nH]1)C(C)C` [Example 6.6, methyl {(2S)-1-[(2S)-2-{5-[(2R,5S)-1-(4-tert-butylphenyl)-5-{4-chloro-2-[(2S)-1-{(2S)-2-[(methoxycarbonyl)amino]-3-methylbutanoyl}pyrrolidin-2-yl]-1H-benzimidazol-5-yl}pyrrolidin-2-yl]-4-chloro-1H-benzimidazol-2-yl}pyrrolidin-1-yl]-3-methyl-1-oxobutan-2-yl}carbamate], with less than 0.1 nM; and `COC(=O)N[C@H](C(=O)N1CCC[C@H]1c1nc2c(C)c([C@H]3CC[C@H](c4ccc5[nH]c([C@@H]6CCCN6C(=O)[C@@H](NC(=O)OC)C(C)C)nc5c4C)N3c3ccc(C(C)(C)C)cc3)ccc2[nH]1)C(C)C` [Example 6.7, methyl {(2S)-1-[(2S)-2-{5-[(2R,5R)-1-(4-tert-butylphenyl)-5-{2-[(2S)-1-{(2S)-2-[(methoxycarbonyl)amino]-3-methylbutanoyl}pyrrolidin-2-yl]-4-methyl-1H-benzimidazol-5-yl}pyrrolidin-2-yl]-4-methyl-1H-benzimidazol-2-yl}pyrrolidin-1-yl]-3-methyl-1-oxobutan-2-yl}carbamate], with less than 0.1 nM.

Take `COC(=O)N[C@H](C(=O)N1CCC[C@H]1c1nc2c(C)c([C@H]3CC[C@@H](c4ccc5[nH]c([C@@H]6CCCN6C(=O)[C@@H](NC(=O)OC)C(C)C)nc5c4C)N3c3ccc(C(C)(C)C)cc3)ccc2[nH]1)C(C)C` [Example 6.8, methyl {(2S)-1-[(2S)-2-{5-[(2R,5S)-1-(4-tert-butylphenyl)-5-{2-[(2S)-1-{(2S)-2-[(methoxycarbonyl)amino]-3-methylbutanoyl}pyrrolidin-2-yl]-4-methyl-1H-benzimidazol-5-yl}pyrrolidin-2-yl]-4-methyl-1H-benzimidazol-2-yl}pyrrolidin-1-yl]-3-methyl-1-oxobutan-2-yl}carbamate]: the EC50 is less than 0.1 nM.

For `COC(=O)N[C@H](C(=O)N1CCC[C@H]1c1nc2cc([C@H]3CC[C@H](c4cc5nc([C@@H]6CCCN6C(=O)[C@@H](NC(=O)OC)C(C)C)[nH]c5cc4F)N3c3ccc(N4CCCCC4)c(F)c3)c(F)cc2[nH]1)C(C)C` [Example 6.9, methyl {(2S)-1-[(2S)-2-(6-fluoro-5-{(2R,5R)-5-{6-fluoro-2-[(2S)-1-{(2S)-2-[(methoxycarbonyl)amino]-3-methylbutanoyl}pyrrolidin-2-yl]-1H-benzimidazol-5-yl}-1-[3-fluoro-4-(piperidin-1-yl)phenyl]pyrrolidin-2-yl}-1H-benzimidazol-2-yl)pyrrolidin-1-yl]-3-methyl-1-oxobutan-2-yl}carbamate], the EC50 is less than 0.1 nM. Consider `COC(=O)N[C@H](C(=O)N1CCC[C@H]1c1nc2cc([C@H]3CC[C@H](c4cc5nc([C@@H]6CCCN6C(=O)[C@@H](NC(=O)OC)C(C)C)[nH]c5cc4F)N3c3cc(F)c(N4CCCCC4)c(F)c3)c(F)cc2[nH]1)C(C)C` [Example 6.10, methyl {(2S)-1-[(2S)-2-{5-[(2R,5R)-1-[3,5-difluoro-4-(piperidin-1-yl)phenyl]-5-{6-fluoro-2-[(2S)-1-{(2S)-2-[(methoxycarbonyl)amino]-3-methylbutanoyl}pyrrolidin-2-yl]-1H-benzimidazol-5-yl}pyrrolidin-2-yl]-6-fluoro-1H-benzimidazol-2-yl}pyrrolidin-1-yl]-3-methyl-1-oxobutan-2-yl}carbamate], for which the EC50 was less than 0.1 nM.

Take `COC(=O)N[C@H](C(=O)N1CCC[C@H]1c1nc2cc([C@H]3CC[C@H](c4cc5nc([C@@H]6CCCN6C(=O)[C@@H](NC(=O)OC)C(C)C)[nH]c5cc4F)N3c3cc(F)c(N4CCC(c5ccccc5)CC4)c(F)c3)c(F)cc2[nH]1)C(C)C` [Example 6.11, methyl {(2S)-1-[(2S)-2-{5-[(2R,5R)-1-[3,5-difluoro-4-(4-phenylpiperidin-1-yl)phenyl]-5-{6-fluoro-2-[(2S)-1-{(2S)-2-[(methoxycarbonyl)amino]-3-methylbutanoyl}pyrrolidin-2-yl]-1H-benzimidazol-5-yl}pyrrolidin-2-yl]-6-fluoro-1H-benzimidazol-2-yl}pyrrolidin-1-yl]-3-methyl-1-oxobutan-2-yl}carbamate]: the EC50 is less than 0.1 nM.

As to `COC(=O)N[C@H](C(=O)N1CCC[C@H]1c1nc2cc([C@H]3CC[C@H](c4cc5nc([C@@H]6CCCN6C(=O)[C@@H](NC(=O)OC)C(C)C)[nH]c5cc4F)N3c3cc(F)c(N4CCC5(CC4)CC5)c(F)c3)c(F)cc2[nH]1)C(C)C` [Example 6.12, methyl {(2S)-1-[(2S)-2-{5-[(2R,5R)-1-[4-(6-azaspiro[2.5]oct-6-yl)-3,5-difluorophenyl]-5-{6-fluoro-2-[(2S)-1-{(2S)-2-[(methoxycarbonyl)amino]-3-methylbutanoyl}pyrrolidin-2-yl]-1H-benzimidazol-5-yl}pyrrolidin-2-yl]-6-fluoro-1H-benzimidazol-2-yl}pyrrolidin-1-yl]-3-methyl-1-oxobutan-2-yl}carbamate], the EC50 was less than 0.1 nM.
